Values quoted from earlier work as cited in patent US20260199417A1, “OPHTHALMIC FORMULATION FOR TOPICAL USE CONTAINING HELENALIN, 11A,13-DIHYDRO HELENALIN AND FLAVONOIDS FROM ARNICA MONTANA EXTRACT AND SODIUM HYALURONATE, AND USE THEREOF BY HUMANS TO TREAT DRY EYE SYNDROME” (CENTRO DE RETINA MÉDICA Y QUIRÚRGICA, S.C., priority 2022, published 2026).

Test system: NF kappa-B
Details: T cells, B cells, and epithelial cells

SMILES | Activation of NF kappa-B
C[C@@H]1C[C@H]2OC(=O)[C@@H](C)[C@H]2[C@H](O)[C@]2(C)C(=O)C=C[C@@H]12 [11-α, 13-dihydrohelenalin] | inhibited
C=C1C(=O)O[C@@H]2C[C@@H](C)[C@@H]3C=CC(=O)[C@@]3(C)[C@@H](O)[C@H]12 [helenalin] | inhibited
